# Test results published in US9040530B2, “1,2,4-triazine-6-carboxamide kinase inhibitors” (Portola Pharmaceuticals, Inc., priority 2012, dated 2015).
# Biological target: T1, full length active recombinant SYK enzyme (Homo sapiens, UniProt P43405)
# T1 construct: full length active recombinant SYK enzyme (Millipore, Calif.); purchased Millipore
# Assay: Inhibition of Syk tyrosine phosphorylation activity (LANCE TR-FRET kinase assay)
# Assay type: biochemical
# Details: 1 nM active SYK enzyme, 550 nM SYK-substrate, 100 μM ATP, 1 hour at room temperature
row,IC50 [nM],Compound
1,10 to 100,"CC[C@@H](Nc1nnc(C(N)=O)c(Nc2cnc3cc(F)ccc3c2)n1)C(N)=O [Example 159, (R)-3-((1-amino-1-oxobutan-2-yl)amino)-5-((7-fluoroquinolin-3-yl)amino)-1,2,4-triazine-6-carboxamide]"
2,10 to 100,"CC[C@@H](Nc1nnc(C(N)=O)c(Nc2ccc(C)c(C)c2)n1)C(N)=O [Example 203, (R)-3-((1-amino-1-oxobutan-2-yl)amino)-5-((3,4-dimethylphenyl)amino)-1,2,4-triazine-6-carboxamide]"
3,< 1,"Cn1ncc2ccc(Nc3nc(N[C@@H]4CCCC[C@@H]4N)nnc3C(N)=O)cc21 [Example 182, 3-(((1R,2S)-2-aminocyclohexyl)amino)-5-((1-methyl-1H-indazol-6-yl)amino)-1,2,4-triazine-6-carboxamide]"
4,10 to 100,"CC[C@@H](Nc1nnc(C(N)=O)c(Nc2cc(C)ns2)n1)C(N)=O [Example 140, (R)-3-((1-amino-1-oxobutan-2-yl)amino)-5-((3-methylisothiazol-5-yl)amino)-1,2,4-triazine-6-carboxamide]"
5,10 to 100,"Cn1cc(C#N)c2ccc(Nc3nc(N[C@@H]4CCCC(F)(F)[C@@H]4N)nnc3C(N)=O)cc21 [Example 173, 3-(((1R,2R)-2-amino-3,3-difluorocyclohexyl)amino)-5-((3-cyano-1-methyl-1H-indol-6-yl)amino)-1,2,4-triazine-6-carboxamide]"
6,10 to 100,"CC[C@@H](Nc1nnc(C(N)=O)c(Nc2ccc(C(F)(F)F)cc2)n1)C(N)=O [Example 169, (R)-3-((1-amino-1-oxobutan-2-yl)amino)-5-((4-(trifluoromethyl)phenyl)amino)-1,2,4-triazine-6-carboxamide]"
7,10 to 100,"NC(=O)c1nnc(N[C@@H]2CCCC[C@@H]2N)nc1Nc1cnc2cccnc2c1 [Example 258, 5-((1,5-naphthyridin-3-yl)amino)-3-(((1R,2S)-2-aminocyclohexyl)amino)-1,2,4-triazine-6-carboxamide]"
8,100 to 1000,"NC(=O)c1nnc(N[C@@H]2CCCC(F)(F)[C@@H]2N)nc1Nc1ccc2c(c1)CS(=O)(=O)C2 [Example 217, 3-(((1R,2R)-2-amino-3,3-difluorocyclohexyl)amino)-5-((2,2-dioxido-1,3-dihydrobenzo[c]thiophen-5-yl)amino)-1,2,4-triazine-6-carboxamide]"
9,10 to 100,"NC(=O)c1nnc(N[C@@H]2CCCC[C@@H]2N)nc1Nc1cncs1 [Example 133, 3-(((1R,2S)-2-aminocyclohexyl)amino)-5-(thiazol-5-ylamino)-1,2,4-triazine-6-carboxamide]"
10,100 to 1000,"N#Cc1ccc(Nc2nc(N[C@@H]3CCOC[C@@H]3N)nnc2C(N)=O)cc1 [Example 76, 3-(((3R,4R)-3-aminotetrahydro-2H-pyran-4-yl)amino)-5-((4-cyanophenyl)amino)-1,2,4-triazine-6-carboxamide]"
11,10 to 100,"COc1ccc(Nc2nc(N[C@H](CC(C)C)C(N)=O)nnc2C(N)=O)cc1C(F)(F)F [Example 113, (R)-3-((1-amino-4-methyl-1-oxopentan-2-yl)amino)-5-((4-methoxy-3-(trifluoromethyl)phenyl)amino)-1,2,4-triazine-6-carboxamide]"
12,1 to 10,"Cc1ccc(Nc2nc(N[C@@H]3CCCC[C@@H]3N)nnc2C(N)=O)cc1 [Example 8, 3-(((1R,2S)-2-aminocyclohexyl)amino)-5-(p-tolylamino)-1,2,4-triazine-6-carboxamide]"
13,1 to 10,"Cn1ncc2c(Nc3nc(N[C@@H]4CCCC[C@@H]4N)nnc3C(N)=O)cccc21 [Example 105, 3-(((1R,2S)-2-aminocyclohexyl)amino)-5-((1-methyl-1H-indazol-4-yl)amino)-1,2,4-triazine-6-carboxamide]"
14,10 to 100,"CC[C@@H](Nc1nnc(C(N)=O)c(Nc2cccc3c2cnn3C)n1)C(N)=O [Example 107, (R)-3-((1-amino-1-oxobutan-2-yl)amino)-5-((1-methyl-1H-indazol-4-yl)amino)-1,2,4-triazine-6-carboxamide]"
15,1 to 10,"NC(=O)c1nnc(N[C@@H]2CCCC[C@@H]2N)nc1Nc1cccc(F)c1 [Example 17, 3-(((1R,2S)-2-aminocyclohexyl)amino)-5-((3-fluorophenyl)amino)-1,2,4-triazine-6-carboxamide]"
16,10 to 100,"NC(=O)c1nnc(N[C@@H]2CCCC[C@@H]2N)nc1Nc1ccc2nccn2c1 [Example 44, 3-(((1R,2S)-2-aminocyclohexyl)amino)-5-(imidazo[1,2-a]pyridin-6-ylamino)-1,2,4-triazine-6-carboxamide]"
17,10 to 100,"CC[C@@H](Nc1nnc(C(N)=O)c(Nc2ccc(Cl)cc2)n1)C(N)=O [Example 200, (R)-3-((1-amino-1-oxobutan-2-yl)amino)-5-((4-chlorophenyl)amino)-1,2,4-triazine-6-carboxamide]"
18,10 to 100,"Cc1ccc(Nc2nc(N[C@@H]3CCOC[C@@H]3N)nnc2C(N)=O)cc1 [Example 9, 3-(((3R,4R)-3-aminotetrahydro-2H-pyran-4-yl)amino)-5-(p-tolylamino)-1,2,4-triazine-6-carboxamide]"
19,10 to 100,"NC(=O)c1nnc(N[C@@H]2CCCC(F)(F)[C@@H]2N)nc1Nc1ccccc1 [Example 96, 3-(((1R,2R)-2-amino-3,3-difluorocyclohexyl)amino)-5-(phenylamino)-1,2,4-triazine-6-carboxamide]"
20,10 to 100,"Cc1ccc(Nc2nc(N[C@H](Cc3cccs3)C(N)=O)nnc2C(N)=O)cc1 [Example 188, (R)-3-(1-amino-1-oxo-3-(thiophen-2-yl)propan-2-ylamino)-5-(p-tolylamino)-1,2,4-triazine-6-carboxamide]"
21,10 to 100,"NC(=O)c1nnc(N[C@@H]2CCCC[C@@H]2N)nc1Nc1ccc(C(=O)N2CCC2)nc1 [Example 66, 3-(((1R,2S)-2-aminocyclohexyl)amino)-5-((6-(azetidine-1-carbonyl)pyridin-3-yl)amino)-1,2,4-triazine-6-carboxamide]"
22,10 to 100,"N#Cc1ccc(Nc2nc(N[C@@H]3CCCC[C@@H]3N)nnc2C(N)=O)cc1F [Example 116, 3-(((1R,2S)-2-aminocyclohexyl)amino)-5-((4-cyano-3-fluorophenyl)amino)-1,2,4-triazine-6-carboxamide]"
23,1 to 10,"Cn1ccc2ccc(Nc3nc(N[C@@H]4CCCC[C@@H]4N)nnc3C(N)=O)cc21 [Example 119, 3-(((1R,2S)-2-aminocyclohexyl)amino)-5-((1-methyl-1H-indol-6-yl)amino)-1,2,4-triazine-6-carboxamide]"
24,10 to 100,"NC(=O)c1nnc(N[C@@H]2CCCC[C@@H]2N)nc1Nc1ccc(F)c(F)c1 [Example 18, 3-(((1R,2S)-2-aminocyclohexyl)amino)-5-((3,4-difluorophenyl)amino)-1,2,4-triazine-6-carboxamide]"
25,100 to 1000,"CC[C@@H](Nc1nnc(C(N)=O)c(Nc2cccc(C#N)c2)n1)C(N)=O [Example 73, (R)-3-((1-amino-1-oxobutan-2-yl)amino)-5-((3-cyanophenyl)amino)-1,2,4-triazine-6-carboxamide]"
26,10 to 100,"Cc1cc(Nc2nc(N[C@@H]3CCCC(F)(F)[C@@H]3N)nnc2C(N)=O)ccc1Cl [Example 218, 3-(((1R,2R)-2-amino-3,3-difluorocyclohexyl)amino)-5-((4-chloro-3-methylphenyl)amino)-1,2,4-triazine-6-carboxamide]"
